Experiments:
Leukotriene C4 synthase = target: T1, Leukotriene C4 synthase (Cavia porcellus, UniProt A6XA80); format: tissue-based, Lung;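 further: enzyme inhibition assay of leukotriene C4 synthase, using LTA4 as the substrate; in other assays of this panel Not Active means under 50% inhibition at 10 µM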
T1 sequence (A6XA80 whole entry): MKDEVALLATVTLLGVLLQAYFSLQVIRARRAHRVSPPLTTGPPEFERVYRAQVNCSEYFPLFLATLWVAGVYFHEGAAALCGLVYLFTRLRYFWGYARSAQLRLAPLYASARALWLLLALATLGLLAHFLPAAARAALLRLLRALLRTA

Acetylcholinesterase = Acetylcholinesterase (Homo sapiens, UniProt P22303); test: DRUGMATRIX: Acetylcholinesterase enzyme inhibition (substrate: acetylthiocholine); format: cell-based, HEK293; conditions: hek293; Not Active = under 50% inhibition at 10 µM
Acetylcholinesterase, sequence (P22303 whole entry): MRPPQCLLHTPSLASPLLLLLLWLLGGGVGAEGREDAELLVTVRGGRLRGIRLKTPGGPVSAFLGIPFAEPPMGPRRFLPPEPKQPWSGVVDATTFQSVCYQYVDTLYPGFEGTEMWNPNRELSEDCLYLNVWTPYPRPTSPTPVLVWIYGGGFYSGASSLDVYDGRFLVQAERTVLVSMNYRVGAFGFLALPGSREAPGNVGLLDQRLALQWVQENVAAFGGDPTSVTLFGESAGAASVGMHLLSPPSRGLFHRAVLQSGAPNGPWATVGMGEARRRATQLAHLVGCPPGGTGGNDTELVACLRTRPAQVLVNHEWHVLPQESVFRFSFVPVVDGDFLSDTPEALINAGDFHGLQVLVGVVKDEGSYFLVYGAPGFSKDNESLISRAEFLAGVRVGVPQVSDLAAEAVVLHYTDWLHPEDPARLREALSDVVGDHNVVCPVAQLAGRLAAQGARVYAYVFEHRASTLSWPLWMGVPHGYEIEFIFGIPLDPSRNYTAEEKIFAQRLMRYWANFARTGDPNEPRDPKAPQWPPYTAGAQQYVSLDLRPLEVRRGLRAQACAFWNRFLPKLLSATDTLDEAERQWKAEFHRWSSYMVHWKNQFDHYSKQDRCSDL

[1] = DRUGMATRIX: Atrial Natriuretic Factor (ANF) radioligand binding (ligand: [125I] ANF (rat)); format: cell membranes, Cavia porcellus, Dunkin-Hartley, Adrenal gland, Membrane; conditions: Not Active = under 50% inhibition at 10 µM
[2] = target: T2, Muscarinic acetylcholine receptor M2 (Homo sapiens, UniProt P08172); format: cell membranes, CHO-K1, Membrane; conditions: cho-k1; further: in other assays of this panel Not Active means under 50% inhibition at 10 µM
T2 sequence (P08172 whole entry): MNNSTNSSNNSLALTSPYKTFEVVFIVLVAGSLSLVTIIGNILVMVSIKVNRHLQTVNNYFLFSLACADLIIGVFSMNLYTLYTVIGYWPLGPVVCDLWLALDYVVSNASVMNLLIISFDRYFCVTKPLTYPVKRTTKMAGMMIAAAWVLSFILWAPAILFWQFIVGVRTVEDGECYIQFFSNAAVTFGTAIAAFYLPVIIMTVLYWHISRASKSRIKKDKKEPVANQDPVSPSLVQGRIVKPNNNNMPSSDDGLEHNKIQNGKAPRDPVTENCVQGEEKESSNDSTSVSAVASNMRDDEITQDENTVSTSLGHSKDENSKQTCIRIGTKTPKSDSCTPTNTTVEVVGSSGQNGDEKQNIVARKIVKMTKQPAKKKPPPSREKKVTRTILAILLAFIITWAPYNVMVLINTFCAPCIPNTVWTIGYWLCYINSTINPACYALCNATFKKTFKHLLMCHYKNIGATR

Melanocortin receptor 5 = Melanocortin receptor 5 (Homo sapiens, UniProt P33032); format: cell membranes, HEK293, Membrane; conditions: hek293; further: in other assays of this panel Not Active means under 50% inhibition at 10 µM
Melanocortin receptor 5, sequence (P33032 whole entry): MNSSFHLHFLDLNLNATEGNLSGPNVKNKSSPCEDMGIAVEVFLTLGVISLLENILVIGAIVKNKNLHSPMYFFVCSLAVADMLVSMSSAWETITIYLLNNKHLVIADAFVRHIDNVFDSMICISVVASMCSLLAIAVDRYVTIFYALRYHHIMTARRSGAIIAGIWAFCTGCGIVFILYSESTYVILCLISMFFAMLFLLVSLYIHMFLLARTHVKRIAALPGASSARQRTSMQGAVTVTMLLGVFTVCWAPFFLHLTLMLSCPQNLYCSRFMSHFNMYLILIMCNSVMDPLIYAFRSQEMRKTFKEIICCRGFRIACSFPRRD

[3] = target: 5-hydroxytryptamine receptor 2B (Homo sapiens, UniProt P41595); format: cell membranes, CHO-K1, Membrane; further: in other assays of this panel Not Active means under 50% inhibition at 10 µM
5-hydroxytryptamine receptor 2B, sequence (P41595 whole entry): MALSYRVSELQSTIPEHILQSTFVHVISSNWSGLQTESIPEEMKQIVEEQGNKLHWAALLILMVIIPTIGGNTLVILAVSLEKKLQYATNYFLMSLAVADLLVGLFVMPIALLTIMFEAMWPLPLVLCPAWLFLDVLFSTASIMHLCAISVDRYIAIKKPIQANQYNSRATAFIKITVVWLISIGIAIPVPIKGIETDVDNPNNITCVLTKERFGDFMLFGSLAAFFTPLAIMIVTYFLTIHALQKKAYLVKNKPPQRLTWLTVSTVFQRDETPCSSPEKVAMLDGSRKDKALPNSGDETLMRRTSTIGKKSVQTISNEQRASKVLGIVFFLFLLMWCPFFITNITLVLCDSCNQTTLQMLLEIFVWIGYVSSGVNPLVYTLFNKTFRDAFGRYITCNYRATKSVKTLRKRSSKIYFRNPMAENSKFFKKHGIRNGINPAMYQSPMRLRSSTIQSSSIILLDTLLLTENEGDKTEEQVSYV

Cytochrome P450 2D6 = Cytochrome P450 2D6 (Homo sapiens, UniProt P10635); conditions: bti-tn-5b1-4; further: in other assays of this panel Not Active means under 50% inhibition at 10 µM
Cytochrome P450 2D6, sequence (P10635 whole entry): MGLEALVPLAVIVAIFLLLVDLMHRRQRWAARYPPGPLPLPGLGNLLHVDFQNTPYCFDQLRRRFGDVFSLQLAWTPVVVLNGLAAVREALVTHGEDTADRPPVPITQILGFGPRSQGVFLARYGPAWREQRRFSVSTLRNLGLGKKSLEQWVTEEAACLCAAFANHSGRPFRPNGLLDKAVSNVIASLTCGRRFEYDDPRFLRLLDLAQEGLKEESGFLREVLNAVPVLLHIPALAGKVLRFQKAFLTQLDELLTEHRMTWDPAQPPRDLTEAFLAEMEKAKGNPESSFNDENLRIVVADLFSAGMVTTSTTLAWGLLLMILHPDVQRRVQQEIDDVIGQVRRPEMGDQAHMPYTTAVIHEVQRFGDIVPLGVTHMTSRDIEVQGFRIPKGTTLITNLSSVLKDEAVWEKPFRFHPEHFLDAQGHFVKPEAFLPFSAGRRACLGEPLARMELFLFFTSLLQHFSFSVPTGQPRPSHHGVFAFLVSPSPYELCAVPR

Compound	IC50 (Leukotriene C4 synthase)	IC50 (Acetylcholinesterase)	IC50 [1]	Ki [1]	IC50 [2]	IC50 (Melanocortin receptor 5)	IC50 ([3]; cho-k1)	IC50 (Cytochrome P450 2D6)	Ki (Cytochrome P450 2D6)	IC50 ([3]; read-out: IC50) [µM]	Ki ([3]; read-out: Ki) [µM]
O=P(O)(O)C(O)(Cc1cccnc1)P(=O)(O)O [RISEDRONIC ACID]	Not Active	Not Active	Not Active	Not Active	Not Active	Not Active	Not Active	Not Active	Not Active	–	–
CN(CCOc1ccc(CC2SC(=O)NC2=O)cc1)c1ccccn1 (configuration not stated) [ROSIGLITAZONE]	Not Active	Not Active	Not Active	Not Active	Not Active	Not Active	Not Active	–	–	–	–
C=C(C)[C@H]1Cc2c(ccc3c2O[C@@H]2COc4cc(OC)c(OC)cc4[C@@H]2C3=O)O1 [ROTENONE]	Not Active	Not Active	Not Active	Not Active	Not Active	Not Active	Not Active	Not Active	Not Active	–	–
C#CCN(C)[C@H](C)Cc1ccccc1 [SELEGILINE]	Not Active	Not Active	Not Active	Not Active	Not Active	Not Active	Not Active	Not Active	Not Active	–	–
CO[C@H]1C[C@@H]2CC[C@@H](C)[C@@](O)(O2)C(=O)C(=O)N2CCCC[C@H]2C(=O)O[C@H]([C@H](C)C[C@@H]2CC[C@@H](O)[C@H](OC)C2)CC(=O)[C@H](C)/C=C(\C)[C@@H](O)[C@@H](OC)C(=O)[C@H](C)C[C@H](C)/C=C/C=C/C=C/1C [SIROLIMUS]	Not Active	Not Active	Not Active	Not Active	Not Active	Not Active	Not Active	Not Active	Not Active	–	–
CN[C@@H]1[C@H](O)[C@H](NC)[C@H]2O[C@@]3(O)C(=O)C[C@@H](C)O[C@H]3O[C@@H]2[C@H]1O [SPECTINOMYCIN]	Not Active	Not Active	Not Active	Not Active	Not Active	Not Active	Not Active	Not Active	Not Active	–	–
Nc1ccc(S(=O)(=O)Nc2ncccn2)cc1 [SULFADIAZINE]	Not Active	Not Active	Not Active	Not Active	Not Active	Not Active	Not Active	Not Active	Not Active	–	–
COc1ncnc(NS(=O)(=O)c2ccc(N)cc2)c1OC [SULFADOXINE]	Not Active	Not Active	Not Active	Not Active	Not Active	Not Active	Not Active	Not Active	Not Active	–	–
Nc1ccc(S(=O)(=O)Nc2nccs2)cc1 [SULFATHIAZOLE]	Not Active	Not Active	Not Active	Not Active	Not Active	Not Active	Not Active	Not Active	Not Active	–	–
C[C@]12CC[C@H]3[C@@H](CCC4=CC(=O)CC[C@@]43C)[C@@H]1CC[C@@H]2O [TESTOSTERONE]	Not Active	Not Active	Not Active	Not Active	Not Active	Not Active	Not Active	Not Active	Not Active	–	–
CC(C)(C)NC[C@H](O)COc1nsnc1N1CCOCC1 [TIMOLOL]	Not Active	Not Active	Not Active	Not Active	Not Active	Not Active	Not Active	Not Active	Not Active	–	–
CCS(=O)(=O)CCn1c([N+](=O)[O-])cnc1C [TINIDAZOLE]	Not Active	Not Active	Not Active	Not Active	Not Active	Not Active	Not Active	–	–	–	–
C[C@@H]1C[C@H]2[C@@H]3CCC4=CC(=O)C=C[C@]4(C)C3=CC[C@]2(C)[C@H]1C(=O)CN1CCN(c2cc(N3CCCC3)nc(N3CCCC3)n2)CC1 [TIRILAZAD]	Not Active	Not Active	Not Active	Not Active	Not Active	Not Active	–	Not Active	Not Active	18.5	11.8
O=c1n(CCCN2CCN(c3cccc(Cl)c3)CC2)nc2ccccn12 [TRAZODONE]	Not Active	Not Active	–	–	Not Active	Not Active	–	Not Active	Not Active	–	–
COc1ccc(CN2CCNCC2)c(OC)c1OC [TRIMETAZIDINE]	Not Active	Not Active	Not Active	Not Active	Not Active	Not Active	Not Active	–	–	–	–

— ChEMBL document CHEMBL1909046, “DrugMatrix in vitro pharmacology data”
